Residues, ends and D or L forms follow the SMILES beside them. *: point of attachment. Cbz = O=C(OCc1ccccc1)*; CH2F = FC*

Holding throughout (assay type): cell-based, mouse
The subject of one assay is p33^QIK. Kind of assay: In-gel kinase assay (MBP substrate) of p33^QIK activity in treated NIH3T3 cultures. The following applies: for kinase activity of p33^QIK: quiescent NIH3T3 cultures (48 hr serum starvation) stimulated with reagent, 1-6 hr. As to the method: (§1) Mouse NIH3T3 fibroblast cultures were maintained in Dulbecco's modified Eagle's medium (DMEM)(BRL/GIBCO, Grand Island, N.Y.) supplemented with 5% calf serum, 50 units/ml penicillin, and 5 mcg/ml streptomycin, and cultivated at 37° C.
(§2) Mouse 10T1/2 fibroblast cultures were maintained in Basal medium Eagle (BRL/GIBCO, Grand Island, N.Y.) supplemented with 10% heat-inactivated fetal bovine serum, 50 U/ml penicillin, and 5 μg/ml streptomycin, and cultivated at 37° C. Cells synchronized in quiescent state were growth-arrested by serum starvation for 48 hr. Actinomycin D (ActD), cycloheximide (CHXM), 12-0-tetradecanoylphorbol 13-acetate (TPA), staurosporine (STSP) (Sigma Chemical, St. Louis, Mo.), sodium fluoride (NaF), sodium orthovanadate (Na3VO4) (Fisher Scientific, Pittsburgh, Pa.), and FR901228 (FR)(NCI, Frederick, Md.) were diluted in cultured medium before treatment of cultured cells. A broad range caspase inhibitor Z-Asp-[(2,6-dichlorobenzoyl)oxy]methane (Z-D-CH2-DCB) (Dolle et al., 1994; Mashima et al., 1995)(CALBIOCHEM, La Jolla, Calif.) was dissolved in dimethyl sulfoxide and diluted in cultured medium for treatment. Recombinant human Caspase-3 was purchased from Alexis Biochemicals (San Diego, Calif.). Protein phosphatase 1 (PP1) and Lambda protein phosphatase (λPPase) were purchased from NE BioLabs (Beverly, Mass.). Production of rabbit polyclonal antibody Ab-KQ to p63^Krsl and p33^QIK was made using peptide sequences of Krsl as antigens (Alpha Diagnostic International, San Antonio, Tex.). UV irradiation was carried out using a UV Crosslinker (Stratagene, La Jolla, Calif.).
(§3) Cells were lysed with 30 strokes of a tight-fitting Dounce homogenizer in lysis A buffer (10 mM KH2PO4, 1 mM EDTA, 5 mM EGTA, 10 mM MgCl2, 50 mM […], 1 mM Na3VO4, 2 mM dithiothreitol) (Wang et al., 1992). Cytoplasmic proteins (S20) were isolated from the supernatants after centrifugation of crude lysates at 20,000 ×g for 20 min. Protein concentration in S20 was measured by using the BCA assay (Pierce, Rockford, Ill.). Immunoprecipitation of p33^QIK was carried out by incubation of S20 with the specific antibody Ab-KQ at 0° C. for 1 hr. Immune complexes were adsorbed to Pansorbin (Staphylococcus aureus) (CALBIOCHEM, La Jolla, Calif.) at 0° C. for 30 min and washed with STE buffer (50 mM Tris-HCl, pH 7.0, 150 mM NaCl, 1 mM Na2 EDTA) supplemented with 0.1 mM DTT and 0.1% NP-40 and ST buffer supplemented with 1 mM DTT.
(§4) MBP (BRL/GIBCO, Grand Island, N.Y.) was used as a substrate in the assay and the in-gel kinase assay was performed as previously described (Wang et al., 1992). Briefly, 10% SDS-polyacrylamide gel (SDS-PAG) was copolymerized with 0.4 mg/ml MBP. Cellular proteins were resolved in the MBP-immobilized SDS-PAG, followed by rinsing the gel with 20% isopropanol in buffer B (100 mM Tris, pH 8, 5 mM β-mercaptoethanol). The gel was denatured in buffer B supplemented with 6 M guanidine-HCl and renatured with buffer B supplemented with 0.04% Tween 40 (Kameshita and Fujisawa, 1989). Kinase reaction was carried out by incubating the gel with kinase buffer (20 Mm Tris, pH 7.2, 10 mM MgCl2, 15 mM β-glycerolphosphate) supplemented with 50 μM γATP and 50 μCi of [γ-^32P]ATP at 22° C. for 30 min. The gel was washed with 1% sodium pyrophosphate in 5% trichloroacetic acid. Protein kinases which phosphorylated MBP in the gel were detected by autoradiography of the [γ^32P]-labeled MBP.

Another assay deals with p63^Krsl. Kind of assay: In-gel kinase assay (MBP substrate) of p63^Krsl activity in treated NIH3T3 cultures. As to conditions: quiescent NIH3T3 cultures stimulated with reagent. As to the method: as §1
Mouse 10T1/2 fibroblast cultures were maintained in Basal medium Eagle (BRL/GIBCO, Grand Island, N.Y.) supplemented with 10% heat-inactivated fetal bovine serum, 50 U/ml penicillin, and 5 μg/ml streptomycin, and cultivated at 37° C. Cells synchronized in quiescent state were growth-arrested by serum starvation for 48 hr. […]
Cells were lysed with 30 strokes of a tight-fitting Dounce homogenizer in lysis A buffer (10 mM KH2PO4, 1 mM EDTA, 5 mM EGTA, 10 mM MgCl2, 50 mM […], 1 mM Na3VO4, 2 mM dithiothreitol) (Wang et al., 1992). […] Protein concentration in S20 was measured by using the BCA assay (Pierce, Rockford, Ill.). […]
MBP (BRL/GIBCO, Grand Island, N.Y.) was used as a substrate in the assay and the in-gel kinase assay was performed as previously described (Wang et al., 1992). […] Protein kinases which phosphorylated MBP in the gel were detected by autoradiography of the [γ^32P]-labeled MBP.

Another assay has as its target p44/42^Erk. As to conditions: quiescent NIH3T3 cultures (48 hr serum starvation) stimulated with reagent, 1-6 hr. As to the method:
as §1, §2, §3, §4

Regarding `COC(=O)C[C@H](NC(=O)[C@H](C)NC(=O)[C@@H](NC(=O)OCc1ccccc1)C(C)C)C(=O)CF` [Z-VAD-FMK] (Cbz-Val-Ala-Asp(OMe)-CH2F), in the assay with p33^QIK (cultures preincubated with caspase inhibitor prior to serum starvation and osmotic stress), the “induction of p33^QIK activity” value is “neither blocked induction of p33^QIK activity”.

As to `C=C1[C@@H](O)[C@@H]2O[C@]3(CC[C@H](/C=C/[C@@H](C)[C@@H]4CC(C)=C[C@@]5(O[C@H](C[C@@](C)(O)C(=O)O)CC[C@H]5O)O4)O3)CC[C@H]2O[C@@H]1[C@@H](O)C[C@H](C)[C@H]1O[C@@]2(CCCCO2)CC[C@H]1C` [okadaic acid], the “kinase activity of p33^QIK” value on p33^QIK was “did not result in deactivation of p33^QIK”. For the same compound, the “kinase activity of p63^Krsl” value at p63^Krsl is “activated p63^Krsl”.

Take `CCCCCCCCCCCCCC(=O)O[C@@H]1[C@@H](C)[C@@]2(O)[C@@H](C=C(CO)C[C@]3(O)C(=O)C(C)=C[C@@H]23)[C@H]2C(C)(C)[C@]12OC(C)=O` [phorbol ester, 12-0-tetradecanoylphorbol 13-acetate]: the “kinase activity of p44/42^Erk” value on p44/42^Erk was “transient induction of p44/42^Erk activity”. Besides, the “kinase activity of p33^QIK” value at p33^QIK was “progressive decrease of p33^QIK activity”.

Turning to `[F-].[Na+]` [sodium fluoride], the “kinase activity of p44/42^Erk” value on p44/42^Erk was “induced p44/42^Erk activity”. Besides, on p33^QIK, the “kinase activity of p33^QIK” value is on record as “resulted in deactivation of p33^QIK”.

On to sodium orthovanadate [sodium vanadate], for which the “kinase activity of p44/42^Erk” value at p44/42^Erk was “profound and constant activation of p44/42^Erk”. Further, the “kinase activity of p33^QIK” value at p33^QIK was “accelerated deactivation of p33^QIK”.
